The test concerns the target T1, human EP4 receptors (Homo sapiens, UniProt P35408).
T1 construct: expressed in transfected cells
In words: cAMP assay in human EP4 transfectant. In kind it is cell-based. The note with it: HEK293 cells expressing human EP4 receptors, 1 nM PGE2, 0.2 mM IBMX, 37° C. for 10 min. The protocol:
cAMP Assay in Human EP4 Transfectant
HEK293 cells expressing human EP4 receptors (hEP4 cells) are maintained in DMEM containing 10% FBS and 500 μg/ml geneticin. For harvesting hEP4 cells, culture medium is aspirated and cells in 75 cm^2 flask are washed with 10 ml of phosphate buffered saline (PBS). Another 10 ml of PBS is added to the cells and incubated for 20 min at room temperature. Human EP4 cells are harvested by pipetting and centrifuged at 300×g for 4 min. Cells are resuspended in DMEM without neutral red at a density of 7×10^5 cells/ml containing 0.2 mM IBMX (PDE inhibitor), 1 nM PGE2 and test compounds in PCR-tubes, and incubated at 37° C. for 10 min. The reaction is stopped by heating at 100° C. for 10 min with thermal cycler. Concentration of cAMP in reaction mixtures is determined with SPA cAMP Kit (Amersham) or cAMP Screen™ (Applied Biosystems) according to the manufacture's instruction. • Reference: Eur. J. Pharmacol. 340 (1997) 227-241. In Vivo Assays Carrageenan Induced Mechanical Hyperalgesia in Rats: […]
For orientation: Changes in cAMP serve as a functional read-out for many G protein-coupled receptors.
T1 sequence (P35408 whole entry): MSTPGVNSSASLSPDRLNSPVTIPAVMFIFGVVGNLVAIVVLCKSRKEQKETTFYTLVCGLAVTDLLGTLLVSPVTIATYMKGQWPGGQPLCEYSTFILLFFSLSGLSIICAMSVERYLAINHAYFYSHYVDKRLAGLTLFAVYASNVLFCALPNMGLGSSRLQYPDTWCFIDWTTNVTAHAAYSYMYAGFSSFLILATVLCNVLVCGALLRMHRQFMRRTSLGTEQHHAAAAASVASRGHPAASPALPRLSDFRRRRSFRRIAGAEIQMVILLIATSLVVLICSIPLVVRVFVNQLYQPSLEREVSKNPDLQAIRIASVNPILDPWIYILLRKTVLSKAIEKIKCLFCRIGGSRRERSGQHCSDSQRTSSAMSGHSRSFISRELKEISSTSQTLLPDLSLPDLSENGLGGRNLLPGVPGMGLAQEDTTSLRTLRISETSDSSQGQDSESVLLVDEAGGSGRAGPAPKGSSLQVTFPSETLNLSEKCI
One may read the IC50 as the concentration that inhibits the measured activity by half. High values mean weaker potency, low ones greater potency. `C[C@H](NC(=O)c1cc(Cl)ccc1COCC(C)(C)C)c1ccc(C(=O)O)cc1` [EXAMPLE 24, 4-{(1S)-1-({5-chloro-2-[(2,2-dimethylpropoxy)methyl]benzoyl}amino)ethyl}benzoic Acid] displayed an IC50 of 0.12 µM.

Take `C[C@H](NC(=O)c1cc(Cl)ccc1COc1ccc(F)c(F)c1)c1ccc(C(=O)O)cc1` [EXAMPLE 11, 4-[(1S)-1-({5-chloro-2-[(3,4-difluorophenoxy)methyl]benzoyl}amino)ethyl]benzoic Acid]: the IC50 came to 0.016 µM. The value for `C[C@H](NC(=O)c1cc(Cl)ccc1COc1ccccc1Cl)c1ccc(C(=O)O)cc1` [EXAMPLE 1, 4-[(1S)-1-({5-chloro-2-[(2-chlorophenoxy)methyl]benzoyl}amino)ethyl]benzoic Acid] was 0.019 µM.

With `C[C@H](NC(=O)c1cc(Cl)cnc1COc1ccc(Cl)cc1)c1ccc(C(=O)O)cc1` [EXAMPLE 18, 4-{(1S)-1-[({5-chloro-2-[(4-chlorophenoxy)methyl]pyridin-3-yl}carbonyl)amino]ethyl}benzoic Acid], the IC50 amounted to 0.022 µM. The value for `CC(C)COCc1ccc(Cl)cc1C(=O)N[C@@H](C)c1ccc(C(=O)O)cc1` [EXAMPLE 17, 4-((1S)-1-{[5-chloro-2-(isobutoxymethyl)benzoyl]amino}ethyl)benzoic Acid] was 0.18 µM; that for `C[C@H](NC(=O)c1cc(Cl)ccc1COc1ccc(F)cc1)c1ccc(C(=O)O)cc1` [EXAMPLE 4, 4-[(1S)-1-({5-chloro-2-[(4-fluorophenoxy)methyl]benzoyl}amino)ethyl]benzoic Acid] was 0.015 µM; that for `C[C@H](NC(=O)c1cc(Cl)ccc1COc1cncc(Cl)c1)c1ccc(C(=O)O)cc1` [EXAMPLE 15, 4-{(1S)-1-[(5-chloro-2-{[(5-chloropyridin-3-yl)oxy]methyl}benzoyl)amino]ethyl}benzoic Acid] was 0.16 µM. For `C[C@H](NC(=O)c1cc(Cl)cnc1COc1cccc(Cl)c1)c1ccc(C(=O)O)cc1` [EXAMPLE 20, 4-{(1S)-1-[({5-chloro-2-[(3-chlorophenoxy)methyl]pyridin-3-yl}carbonyl)amino]ethyl}benzoic Acid] the value was 0.017 µM; for `C[C@H](NC(=O)c1cc(Cl)ccc1COc1cncc(F)c1)c1ccc(C(=O)O)cc1` [EXAMPLE 14, 4-{(1S)-1-[(5-chloro-2-{[(5-fluoropyridin-3-yl)oxy]methyl}benzoyl)amino]ethyl}benzoic Acid], 0.38 µM; for `C[C@H](NC(=O)c1cc(Cl)ccc1COc1cccc(F)c1F)c1ccc(C(=O)O)cc1` [EXAMPLE 7, 4-[(1S)-1-({5-chloro-2-[(2,3-difluorophenoxy)methyl]benzoyl}amino)ethyl]benzoic Acid], 0.015 µM. For `C[C@H](NC(=O)c1cc(Cl)ccc1COc1cc(F)ccc1F)c1ccc(C(=O)O)cc1` [EXAMPLE 9, 4-[(1S)-1-({5-chloro-2-[(2,5-difluorophenoxy)methyl]benzoyl}amino)ethyl]benzoic Acid] the value was 0.041 µM; for `C[C@H](NC(=O)c1cc(Cl)ccc1COc1ccccc1F)c1ccc(C(=O)O)cc1` [EXAMPLE 6, 4-[(1S)-1-({5-chloro-2-[(2-fluorophenoxy)methyl]benzoyl}amino)ethyl]benzoic Acid], 0.03 µM; for `C[C@H](NC(=O)c1cc(Cl)ccc1CN(C)c1ccc(Cl)cn1)c1ccc(C(=O)O)cc1` [EXAMPLE 22, 4-{(1S)-1-[(5-chloro-2-{[(5-chloropyridin-2-yl)(methyl)amino]methyl}benzoyl)amino]ethyl}benzoic Acid], 0.068 µM.

For the compound `C[C@H](NC(=O)c1cc(Cl)ccc1COc1cc(F)cc(F)c1)c1ccc(C(=O)O)cc1` [EXAMPLE 12, 4-[(1S)-1-({5-chloro-2-[(3,5-difluorophenoxy)methyl]benzoyl}amino)ethyl]benzoic Acid], half-maximal inhibition (IC50) was put at 0.022 µM. In the case of `C[C@H](NC(=O)c1cc(Cl)ccc1COCC1CCCCC1)c1ccc(C(=O)O)cc1` [EXAMPLE 23, 4-{(1S)-1-({5-chloro-2-[(cyclohexylmethoxy)methyl]benzoyl}amino)ethyl}benzoic Acid], the IC50 came to 0.01 µM. Turning to `C[C@H](NC(=O)c1cc(Cl)ccc1COc1ccc(F)cc1F)c1ccc(C(=O)O)cc1` [EXAMPLE 8, 4-[(1S)-1-({5-chloro-2-[(2,4-difluorophenoxy)methyl]benzoyl}amino)ethyl]benzoic Acid], the IC50 was 0.017 µM.

In the case of `Cc1ccc(OCc2ccc(Cl)cc2C(=O)N[C@@H](C)c2ccc(C(=O)O)cc2)cc1` [EXAMPLE 13, 4-[(1S)-1-({5-chloro-2-[(4-methylphenoxy)methyl]benzoyl}amino)ethyl]benzoic Acid], the IC50 was found to be 0.0083 µM. `C[C@H](NC(=O)c1cc(Cl)ccc1COc1cccc(Cl)c1)c1ccc(C(=O)O)cc1` [EXAMPLE 2, 4-[(1S)-1-({5-chloro-2-[(3-chlorophenoxy)methyl]benzoyl}amino)ethyl]benzoic Acid] had a half-inhibitory concentration (IC50) of 0.011 µM. For `C[C@H](NC(=O)c1cc(Cl)ccc1COC1CCCC1)c1ccc(C(=O)O)cc1` [EXAMPLE 16, 4-[(1S)-1-({5-chloro-2-[(cyclopentyloxy)methyl]benzoyl}amino)ethyl]benzoic Acid] the value was 0.47 µM; for `C[C@H](NC(=O)c1cc(Cl)cnc1COc1cccc(F)c1)c1ccc(C(=O)O)cc1` [EXAMPLE 26, 4-{(1S)-1-[({5-chloro-2-[(3-fluorophenoxy)methyl]pyridin-3-yl}carbonyl)amino]ethyl}benzoic Acid], 0.056 µM. For `C[C@H](NC(=O)c1cc(Cl)cnc1COc1ccc(F)cc1)c1ccc(C(=O)O)cc1` [EXAMPLE 27, 4-{(1S)-1-[({5-chloro-2-[(4-fluorophenoxy)methyl]pyridin-3-yl}carbonyl)amino]ethyl}benzoic Acid] the value was 0.091 µM; for `C[C@H](NC(=O)c1cc(Cl)ccc1COc1ccc(Cl)cc1)c1ccc(C(=O)O)cc1` [EXAMPLE 3, 4-[(1S)-1-({5-chloro-2-[(4-chlorophenoxy)methyl]benzoyl}amino)ethyl]benzoic Acid], 0.0075 µM.

Take `C[C@H](NC(=O)c1cc(Cl)ccc1COc1c(F)cccc1F)c1ccc(C(=O)O)cc1` [EXAMPLE 10, 4-[(1S)-1-({5-chloro-2-[(2,6-difluorophenoxy)methyl]benzoyl}amino)ethyl]benzoic Acid]: the concentration for half-maximal inhibition (IC50) worked out at 0.024 µM. In turn, `C[C@H](NC(=O)c1cc(F)cnc1COc1ccc(Cl)cc1)c1ccc(C(=O)O)cc1` [EXAMPLE 21, 4-{(1S)-1-[({2-[(4-chlorophenoxy)methyl]-5-fluoropyridin-3-yl}carbonyl)amino]ethyl}benzoic Acid] came in with an IC50 of 0.048 µM. `C[C@H](NC(=O)c1cc(Cl)ccc1COc1cccc(F)c1)c1ccc(C(=O)O)cc1` [EXAMPLE 5, 4-[(1S)-1-({5-chloro-2-[(3-fluorophenoxy)methyl]benzoyl}amino)ethyl]benzoic Acid] came in with an IC50 of 0.023 µM.

Regarding `C[C@H](NC(=O)c1cc(Cl)ccc1CN(C)c1ccc(F)cn1)c1ccc(C(=O)O)cc1` [EXAMPLE 25, 4-{(1S)-1-[(5-chloro-2-{[(5-fuluoropyridin-2-yl)(methyl)amino]methyl}benzoyl)amino]ethyl}benzoic Acid], it took 0.23 µM to reach half-maximal inhibition (IC50). The value for `CNC(=O)c1cccc(OCc2ccc(Cl)cc2C(=O)N[C@@H](C)c2ccc(C(=O)O)cc2)c1` [EXAMPLE 19, 4-((1S)-1-{[5-chloro-2-({3-[(methylamino)carbonyl]phenoxy}methyl)benzoyl]amino}ethyl)benzoic Acid] was 0.22 µM.

The values are drawn from patent publication US7534914B2, “Substituted methyl aryl or heteroaryl amide compounds” (ReQualia Pharma Inc., priority 2004, dated 2009).
